“Also recorded” adds a separate entry of the source.
How the values were obtained:
[1] = tested on: serum albumin or phosphate; experiment: serum albumin and phosphate in rats; assay type: in vivo, rat; details: i.p.
Protocol: (§1) Compounds shown to activate the bovine parathyroid cell calcium receptor in vitro were tested for hypocalcemic activity in vivo. Male Sprague-Dawley rats (200 g) were maintained on a low calcium diet for one week prior to receiving test substance or vehicle as control. Blood was collected from the tail vein three hours after the intra-peritoneal administration of NPS 467. […] Serum total calcium, albumin and phosphate were measured by techniques well known in the art.

serum ionized calcium [2] = experiment: serum ionized Ca2+ in rats; assay type: in vivo, rat; details: for effect on serum or whole blood Ca2+: NPS 467 i.p., low calcium diet
Protocol: as §1
Rats (male, Sprague-Dawley, 250-300 g) were fed standard rat chow and fasted overnight prior to the experiment. NPS R-467 was suspended in corn oil and administered as a single oral dose through a gavage needle. Three hours later a sample of blood was taken from the tail vein and assessed for ionized Ca^2+ levels.

PTH = PTH levels in rats; assay type: in vivo, rat; details: NPS 467, preliminary studies
Excerpt: The fall in blood Ca^2+ at this time was paralleled by a proportional fall in the levels of blood total calcium.

C-cell calcium receptor = target: T1, C-cell calcium receptor (Rattus norvegicus, UniProt P48442); assay type: cell-based; details: Table 6; rMTC 6-23 cells, fura-2
T1 construct: Neoplastic C-cells derived from a rat medullary thyroid carcinoma (rMTC 6-23); host or cells: rMTC 6-23 cells
T1 sequence (P48442 20-1079): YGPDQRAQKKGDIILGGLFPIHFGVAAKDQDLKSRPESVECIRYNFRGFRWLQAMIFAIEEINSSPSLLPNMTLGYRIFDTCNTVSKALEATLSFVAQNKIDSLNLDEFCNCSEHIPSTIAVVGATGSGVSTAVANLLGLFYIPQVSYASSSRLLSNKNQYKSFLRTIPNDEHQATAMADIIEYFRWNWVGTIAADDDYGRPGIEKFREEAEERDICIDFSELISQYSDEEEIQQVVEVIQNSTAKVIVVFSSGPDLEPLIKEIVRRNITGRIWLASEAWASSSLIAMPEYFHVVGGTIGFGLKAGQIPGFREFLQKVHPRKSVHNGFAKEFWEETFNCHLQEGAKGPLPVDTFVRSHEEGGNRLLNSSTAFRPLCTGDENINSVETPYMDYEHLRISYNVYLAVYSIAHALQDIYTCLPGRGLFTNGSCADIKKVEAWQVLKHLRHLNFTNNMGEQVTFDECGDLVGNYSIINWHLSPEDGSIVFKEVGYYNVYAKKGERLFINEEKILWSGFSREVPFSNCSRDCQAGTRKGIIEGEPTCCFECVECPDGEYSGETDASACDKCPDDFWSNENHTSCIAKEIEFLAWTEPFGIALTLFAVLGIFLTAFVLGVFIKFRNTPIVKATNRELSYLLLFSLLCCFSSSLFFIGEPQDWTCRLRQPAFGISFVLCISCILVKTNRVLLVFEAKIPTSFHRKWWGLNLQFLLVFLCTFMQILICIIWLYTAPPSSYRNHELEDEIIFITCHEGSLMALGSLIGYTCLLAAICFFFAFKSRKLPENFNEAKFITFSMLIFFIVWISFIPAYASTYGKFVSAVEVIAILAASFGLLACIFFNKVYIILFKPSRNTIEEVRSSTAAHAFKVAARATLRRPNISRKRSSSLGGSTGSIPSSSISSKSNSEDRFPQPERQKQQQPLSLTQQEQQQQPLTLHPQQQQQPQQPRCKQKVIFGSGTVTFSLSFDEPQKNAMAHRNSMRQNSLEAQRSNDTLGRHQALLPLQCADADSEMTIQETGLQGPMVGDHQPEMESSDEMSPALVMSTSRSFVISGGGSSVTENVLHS
Excerpt: To assess the effects of molecular polycations on C-cells, a neoplastic cell line, derived from a rat medullary thyroid carcinoma (rMTC 6-23 cells) was used.

serum ionized calcium [3] = experiment: serum ionized Ca2+ in parathyroidectomized rats; assay type: in vivo, rat; details: NPS R-467 10 mg/kg i.p., 6 hours; NPS R-568 oral
Excerpt: To determine the primary target tissue upon which NPS R-467 acts to cause a hypocalcemic response, the parathyroid glands in rats were surgically removed. Animals receiving a total parathyroidectomy become hypocalcemic and are largely dependent upon dietary calcium to maintain serum Ca^2+ homeostasis.

[4] = tested on: human parathyroid calcium receptor; experiment: intracellular calcium in HEK293 cells stably transfected with human calcium receptor; assay type: cell-based; details: Ca2+ 10 mM; Mg2+ 20 mM; HuPCaR 5.2
Protocol: Different cells were tested for response to pure stereoisomers and racemic mixtures. […] Intracellular Ca^2+ was monitored using a fluorimeter. Each point on the graph represents the peak response (highest concentration of intracellular calcium achieved) to the addition of the indicated concentration of the indicated compound.
Cells obtained from the pool of hygromycin selected HEK293 cells transfected with Cep4B containing the HuPCaR 5.2 insert were plated on collagen coated Aklar squares which had been placed into individual wells of 12-well tissue culture plates. Two to six days later, medium was removed and the cells washed with balanced salt solution and 1 ml of buffer containing 1 μM fura2-AM, 1 mM CaCl2 and 0.1% BSA and 1 mM CaCl2. Measurements of fluorescence in response to calcium receptor agonists were performed at 37° C. in a spectrofluorimeter using excitation and emission wavelengths of 340 and 510 nm, respectively. For signal calibration, Fmax was determined after addition of ionomycin (40 μM) and the apparent Fmin was determined by addition of 0.3 M EGTA, 2.5 M Tris-HCl; pH 10.
Additional clonal isolates of HEK 293 cells transfected with pHuPCaR4.0 sequence were obtained. These were tested for responsiveness to calcimimetics as described above except that the cells were tested while in suspension. Similar positive results were obtained (FIG. 28b).

[5] = target: T2, human parathyroid cell calcium receptor (Homo sapiens, UniProt P41180); experiment: Cl- current in Xenopus oocytes expressing human parathyroid cell calcium receptor; assay type: cell-based
T2 construct: T7 cRNA injected into Xenopus oocytes
T2 sequence (P41180 with tags, fused parts or gaps INS536PLTFVLSVLQ/Q926R/E1011Q): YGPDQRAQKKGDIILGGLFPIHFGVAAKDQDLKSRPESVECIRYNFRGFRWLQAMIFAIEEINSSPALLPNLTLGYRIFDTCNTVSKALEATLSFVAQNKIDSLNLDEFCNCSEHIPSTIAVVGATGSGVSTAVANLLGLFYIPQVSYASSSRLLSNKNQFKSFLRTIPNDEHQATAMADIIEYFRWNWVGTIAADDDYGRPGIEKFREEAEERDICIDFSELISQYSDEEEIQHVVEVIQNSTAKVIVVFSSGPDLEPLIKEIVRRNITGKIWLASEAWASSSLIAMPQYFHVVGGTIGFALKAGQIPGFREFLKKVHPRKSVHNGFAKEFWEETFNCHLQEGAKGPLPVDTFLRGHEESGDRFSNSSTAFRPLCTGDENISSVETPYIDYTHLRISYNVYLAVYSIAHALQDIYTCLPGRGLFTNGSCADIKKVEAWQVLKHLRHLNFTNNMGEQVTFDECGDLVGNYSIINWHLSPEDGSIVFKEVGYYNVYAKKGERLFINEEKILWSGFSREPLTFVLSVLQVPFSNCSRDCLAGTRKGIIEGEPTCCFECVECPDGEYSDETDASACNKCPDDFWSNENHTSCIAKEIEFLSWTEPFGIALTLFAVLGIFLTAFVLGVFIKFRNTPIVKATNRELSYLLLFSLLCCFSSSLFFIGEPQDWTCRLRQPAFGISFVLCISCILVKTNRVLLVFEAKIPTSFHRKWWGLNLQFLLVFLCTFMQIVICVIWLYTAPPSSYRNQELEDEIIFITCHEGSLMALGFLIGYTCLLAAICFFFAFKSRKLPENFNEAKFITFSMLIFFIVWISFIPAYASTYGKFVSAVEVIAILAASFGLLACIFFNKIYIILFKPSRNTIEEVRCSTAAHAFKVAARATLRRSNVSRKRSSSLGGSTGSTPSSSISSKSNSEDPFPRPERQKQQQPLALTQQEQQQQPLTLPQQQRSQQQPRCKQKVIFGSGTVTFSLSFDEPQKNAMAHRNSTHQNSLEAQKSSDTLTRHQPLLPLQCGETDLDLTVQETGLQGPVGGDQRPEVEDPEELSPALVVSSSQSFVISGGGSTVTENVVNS
Protocol: Representative cDNA inserts for both size classes were subcloned into the plasmid vector pBluescript SK. Linearization followed by in vitro transcription using T7 RNA polymerase produced cRNA transcripts. The cRNA transcripts were injected into Xenopus oocytes (150 ng/μl RNA; 50 nl/oocyte) for functional analysis. Following incubation periods of 2-4 days, the oocytes were assayed for the presence of functional calcium receptors. Both clone types gave rise to functional calcium receptors as assessed by the stimulation of calcium-activated chloride currents upon addition of appropriate calcium receptor agonists. […] Thus, both clones encode a functional, human parathyroid cell calcium receptor.
Xenopus oocytes were injected with pHuPCaR 5.2, the 5.2 Kb cDNA encoding a parathyroid cell calcium receptor derived from a human parathyroid cell adenoma. (See Example 27.) After two to three days, Cl^- currents were measured in the oocytes using a two-electrode voltage clamp.

[6] = tested on: parathyroid cell calcium receptor; experiment: Cl- current in Xenopus oocytes injected with bovine parathyroid cell mRNA; assay type: cell-based; details: 30 μM; oocytes injected with parathyroid cell mRNA
Protocol: Following incubation, an oocyte was placed into a 100-μl plastic chamber and superfused with MBS at a flow rate of 0.5 ml/min using a peristaltic pump. Test molecules or inorganic polycations were added by rapidly moving the tubing into different buffers. Recording and current-passing electrodes were constructed from thin-wall capillary tubing pulled to a resistance of 1-3 Mohms and filled with 3 M KCl. […] Currents were recorded directly onto a strip chart recorder.

| Compound | effect on serum albumin or phosphate [1] | effect on serum or whole blood Ca2+ (serum ionized calcium [2]) | effect on serum or whole blood Ca2+ (serum ionized calcium [2]; listed as NPS-467) | effect on circulating PTH (PTH) | EC50 (C-cell calcium receptor) | effect on serum ionized Ca2+ in parathyroidectomized rats (serum ionized calcium [3]) | increase in intracellular calcium [4] | activation of oocyte-expressed receptor [5] | effect on serum ionized Ca2+, oral (serum ionized calcium [2]; NPS R-467 single oral dose, 3 hours) | effect on Cl- current [6] |
| --- | --- | --- | --- | --- | --- | --- | --- | --- | --- | --- |
| COc1cccc(C(C)NCCCc2ccccc2)c1 (racemic) [NPS 467] | no change in serum albumin or phosphate levels | maximal within three hours | dose-dependent reduction in serum or whole blood Ca^2+ | dose-dependent reduction in circulating levels of PTH |  |  |  |  |  |  |
| COc1cccc([C@@H](C)NCCCc2ccccc2)c1 [NPS R-467, (R)-(+)-N-(3-phenylpropyl)-α-methyl-3-methoxybenzylamine] |  |  |  |  | 2.2 µM | did not cause any change in serum ionized Ca^2+ | Robust increases in intracellular calcium | activated the oocyte-expressed receptor at about the same concentrations | lowers serum ionized calcium; also recorded: dose-dependent reduction in serum levels of ionized Ca^2+ | rapid increase in Cl^- |

— US5962314A, “Calcium receptor-active molecules” (priority 1997, dated 1999)
